What all share (experiment): KINOMEscan competition binding
Holding throughout (settings): compound 10.0 µM

Assay [1] has as its system RET (human), P07949 [M918T].
For assay [2], the system named is FLT3 (human), P36888 [D835H].
Assay [3] has as its system ABL1 (human), P00519 [Y253F].
Assay [4] relates to EGFR (human), P00533 [747-751 del / S ins].
Assay [5] has as its system RET (human), P07949 [V804M].
Assay [6] deals with EGFR (human), P00533 [752-759 del].
Assay [7] has as its system ABL1 (human), P00519 [H396P].
The subject of assay [8] is KIT (human), P10721 [V559D/V654A].
For assay [9], the system named is MET (human), P08581 [Y1235D].
In assay [10] the test system is EGFR (human), P00533 [T790M/L858R].
The subject of assay [11] is KIT (human), P10721 [L576P].
The subject of assay [12] is EGFR (human), P00533 [T790M].
Assay [13] has as its system FLT3 (human), P36888 [R834Q].
Assay [14] deals with ALK (human), Q9UM73 [L1196M].
In assay [15] the test system is ALK (human), Q9UM73 [C1156Y].

Structures are written as SMILES.

Chain of RET (human), P07949 [M918T] (P07949 whole entry M918T, looked up): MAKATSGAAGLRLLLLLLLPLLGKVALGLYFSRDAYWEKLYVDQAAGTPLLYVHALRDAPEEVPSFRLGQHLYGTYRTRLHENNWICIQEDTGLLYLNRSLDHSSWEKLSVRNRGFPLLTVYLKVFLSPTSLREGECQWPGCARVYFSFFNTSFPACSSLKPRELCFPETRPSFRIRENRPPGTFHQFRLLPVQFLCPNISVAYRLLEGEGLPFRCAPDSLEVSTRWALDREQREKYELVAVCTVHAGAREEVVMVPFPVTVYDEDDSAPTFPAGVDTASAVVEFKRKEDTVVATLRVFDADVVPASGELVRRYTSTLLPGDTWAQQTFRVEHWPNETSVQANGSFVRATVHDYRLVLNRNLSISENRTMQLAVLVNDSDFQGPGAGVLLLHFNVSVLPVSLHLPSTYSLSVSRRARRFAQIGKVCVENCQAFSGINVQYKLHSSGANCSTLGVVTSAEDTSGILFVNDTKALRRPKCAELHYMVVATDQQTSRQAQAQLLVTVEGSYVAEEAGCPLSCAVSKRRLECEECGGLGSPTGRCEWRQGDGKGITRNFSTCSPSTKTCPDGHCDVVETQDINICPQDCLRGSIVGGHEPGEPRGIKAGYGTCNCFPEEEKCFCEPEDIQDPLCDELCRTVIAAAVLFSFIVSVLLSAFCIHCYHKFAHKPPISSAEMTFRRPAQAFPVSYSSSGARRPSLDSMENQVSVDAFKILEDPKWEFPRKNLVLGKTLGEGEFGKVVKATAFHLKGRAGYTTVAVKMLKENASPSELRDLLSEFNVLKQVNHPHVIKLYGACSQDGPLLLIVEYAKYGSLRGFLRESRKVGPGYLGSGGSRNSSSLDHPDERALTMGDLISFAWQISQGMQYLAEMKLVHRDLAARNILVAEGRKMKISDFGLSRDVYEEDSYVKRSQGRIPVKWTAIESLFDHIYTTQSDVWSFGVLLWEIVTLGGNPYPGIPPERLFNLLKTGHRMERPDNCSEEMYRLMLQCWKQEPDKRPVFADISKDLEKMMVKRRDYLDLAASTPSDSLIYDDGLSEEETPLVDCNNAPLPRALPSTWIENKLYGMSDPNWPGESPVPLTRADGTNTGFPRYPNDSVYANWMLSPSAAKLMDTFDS
Chain of RET (human), P07949 [V804M] (P07949 whole entry V804M, looked up): as the sequence (P07949 whole entry M918T, looked up) above, with V804M, T918M counted along it
Chain of KIT (human), P10721 [L576P] (P10721 whole entry L576P, looked up): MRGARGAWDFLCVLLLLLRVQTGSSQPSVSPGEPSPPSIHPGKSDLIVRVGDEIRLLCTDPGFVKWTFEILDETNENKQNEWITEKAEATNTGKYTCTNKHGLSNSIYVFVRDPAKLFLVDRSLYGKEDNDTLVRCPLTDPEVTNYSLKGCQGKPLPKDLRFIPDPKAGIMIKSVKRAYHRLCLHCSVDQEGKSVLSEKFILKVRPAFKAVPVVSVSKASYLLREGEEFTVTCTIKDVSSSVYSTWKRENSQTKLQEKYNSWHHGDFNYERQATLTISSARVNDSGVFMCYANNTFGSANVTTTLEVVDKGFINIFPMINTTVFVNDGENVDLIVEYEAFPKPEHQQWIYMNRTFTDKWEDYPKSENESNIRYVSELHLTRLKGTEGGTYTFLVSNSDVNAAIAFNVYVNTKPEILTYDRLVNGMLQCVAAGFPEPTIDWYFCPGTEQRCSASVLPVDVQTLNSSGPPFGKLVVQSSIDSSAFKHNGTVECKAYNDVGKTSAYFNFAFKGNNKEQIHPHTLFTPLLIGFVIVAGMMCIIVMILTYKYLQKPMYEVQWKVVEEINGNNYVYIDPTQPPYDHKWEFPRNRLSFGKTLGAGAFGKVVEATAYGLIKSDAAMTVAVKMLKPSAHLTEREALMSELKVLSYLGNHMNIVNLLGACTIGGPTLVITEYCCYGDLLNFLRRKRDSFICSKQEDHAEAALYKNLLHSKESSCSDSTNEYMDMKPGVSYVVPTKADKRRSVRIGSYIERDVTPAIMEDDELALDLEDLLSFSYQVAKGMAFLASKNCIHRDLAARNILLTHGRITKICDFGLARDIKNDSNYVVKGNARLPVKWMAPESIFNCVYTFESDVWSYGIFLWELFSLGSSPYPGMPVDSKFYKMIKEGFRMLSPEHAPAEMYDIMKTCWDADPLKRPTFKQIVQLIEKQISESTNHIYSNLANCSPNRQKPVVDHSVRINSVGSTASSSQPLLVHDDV
Chain of KIT (human), P10721 [V559D/V654A] (P10721 whole entry V559D/V654A, looked up): as the sequence (P10721 whole entry L576P, looked up) above, with V559D, P576L, V654A counted along it
Chain of ALK (human), Q9UM73 [L1196M] (Q9UM73 whole entry L1196M, looked up): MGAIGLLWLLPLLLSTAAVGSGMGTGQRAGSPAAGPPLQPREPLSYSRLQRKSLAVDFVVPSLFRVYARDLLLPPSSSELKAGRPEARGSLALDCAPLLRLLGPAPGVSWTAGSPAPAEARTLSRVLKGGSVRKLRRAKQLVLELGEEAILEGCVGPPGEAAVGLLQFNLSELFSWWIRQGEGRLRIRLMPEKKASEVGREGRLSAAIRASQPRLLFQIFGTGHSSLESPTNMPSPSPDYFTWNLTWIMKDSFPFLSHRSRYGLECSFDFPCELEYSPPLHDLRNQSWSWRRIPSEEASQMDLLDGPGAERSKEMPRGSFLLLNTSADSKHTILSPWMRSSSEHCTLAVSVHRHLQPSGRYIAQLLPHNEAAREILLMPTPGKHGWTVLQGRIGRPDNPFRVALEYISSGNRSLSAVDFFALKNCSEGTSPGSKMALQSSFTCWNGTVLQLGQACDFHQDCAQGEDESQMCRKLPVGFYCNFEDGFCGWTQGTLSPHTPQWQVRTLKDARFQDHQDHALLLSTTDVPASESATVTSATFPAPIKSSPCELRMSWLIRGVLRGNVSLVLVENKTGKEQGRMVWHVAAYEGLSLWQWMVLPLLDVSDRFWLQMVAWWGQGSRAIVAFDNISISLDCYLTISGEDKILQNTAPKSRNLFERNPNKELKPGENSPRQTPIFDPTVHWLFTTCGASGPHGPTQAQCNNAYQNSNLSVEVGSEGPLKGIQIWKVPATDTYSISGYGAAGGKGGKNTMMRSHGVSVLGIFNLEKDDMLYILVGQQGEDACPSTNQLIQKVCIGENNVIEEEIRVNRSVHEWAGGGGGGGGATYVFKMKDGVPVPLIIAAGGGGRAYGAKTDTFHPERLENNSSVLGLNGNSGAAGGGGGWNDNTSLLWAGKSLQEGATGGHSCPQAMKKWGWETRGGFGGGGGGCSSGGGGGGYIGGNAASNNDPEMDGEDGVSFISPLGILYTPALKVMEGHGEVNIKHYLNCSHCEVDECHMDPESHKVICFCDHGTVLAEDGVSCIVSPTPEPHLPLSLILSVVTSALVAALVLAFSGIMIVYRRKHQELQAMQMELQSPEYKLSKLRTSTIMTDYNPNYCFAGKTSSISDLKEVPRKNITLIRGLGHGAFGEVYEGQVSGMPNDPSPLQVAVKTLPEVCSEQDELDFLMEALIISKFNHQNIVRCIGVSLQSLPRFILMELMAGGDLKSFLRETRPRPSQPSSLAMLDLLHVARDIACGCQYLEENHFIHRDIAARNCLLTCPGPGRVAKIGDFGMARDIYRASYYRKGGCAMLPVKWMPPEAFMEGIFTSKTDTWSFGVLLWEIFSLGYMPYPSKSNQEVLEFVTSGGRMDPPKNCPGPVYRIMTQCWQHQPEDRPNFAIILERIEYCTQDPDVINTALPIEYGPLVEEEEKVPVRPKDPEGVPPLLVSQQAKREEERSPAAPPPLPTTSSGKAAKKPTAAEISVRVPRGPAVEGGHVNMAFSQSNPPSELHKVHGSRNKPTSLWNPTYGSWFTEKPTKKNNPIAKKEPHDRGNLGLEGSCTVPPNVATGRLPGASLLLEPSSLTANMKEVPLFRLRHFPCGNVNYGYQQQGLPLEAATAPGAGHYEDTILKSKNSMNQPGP
Chain of ALK (human), Q9UM73 [C1156Y] (Q9UM73 whole entry C1156Y, looked up): as the sequence (Q9UM73 whole entry L1196M, looked up) above, with C1156Y, M1196L counted along it

As for `COc1cc(N2CCC(C(N)=O)CC2)ccc1Nc1nc(N)c(Cl)c(Nc2ccccc2S(=O)(=O)C(C)C)n1`, the kinase still bound, per cent of control worked out at 100% in assay [1]; 11% in [2]; 100% in assay [3]; 0.75% in assay [4]; 100% in [5]; 1.2% in [6]. Moreover, the kinase still bound, per cent of control in assay [7] and in [8] was 100% each time.
As to `Cc1ccc(C(=O)Nc2cccc(C(F)(F)F)c2)cc1Nc1cncc(C(N)=O)c1`, the kinase still bound, per cent of control in [1], in assay [2], in assay [3], in assay [4], in assay [5] and in assay [6] was 100% in each case. Besides, the kinase still bound, per cent of control came out at 100% in assay [7] and 18% in [8].
For `COc1cc(C)c(Sc2cnc(NC(=O)c3ccc(CNC(C)C(C)C)cc3)s2)cc1C(=O)N1CCN(C(C)=O)CC1` (stereo not given), the kinase still bound, per cent of control in [1] was found to be 32%; in assay [2] it was 14%; in assay [3] it was 100%; in [4], 100%; in assay [5], 100%; in assay [6], 100%. The kinase still bound, per cent of control in assay [7] and in assay [8] was 100% throughout.
In the case of `COc1cc(C(=O)NC2CCN(C)CC2)ccc1Nc1ncc2c(n1)N(C1CCCC1)CCC(=O)N2C(C)C`, the kinase still bound, per cent of control was 0% in assay [1]; 100% in assay [2]; 100% in assay [3]; 100% in assay [9]; 100% in assay [4]; 100% in assay [5]. The kinase still bound, per cent of control in assay [10], in [6], in assay [11], in [7] and in assay [8] was 100% in each case.
On to `Cc1cn(-c2cc(C(=O)Nc3ccc(C)c(NC(=O)c4ccno4)c3)cc(C(F)(F)F)c2)cn1`, for which the kinase still bound, per cent of control in assay [1] is 100%; in assay [2] it was 100%; in assay [3], 7.4%; in [9], 100%; in assay [4], 100%; in assay [5], 100%. The kinase still bound, per cent of control in assay [10] was determined as 100%; in assay [6] it was 100%; in assay [11], 0%; in [7], 16%; in assay [8] it was 5.4%.
`COc1cc2ncnc(Nc3cccc(Cl)c3)c2cc1OC`: the kinase still bound, per cent of control in [1] was found to be 3.4%; in [2] it was 15%; in assay [3], 2.3%; in assay [9], 100%; in assay [4], 3.2%; in assay [5], 94%. Further, the kinase still bound, per cent of control in assay [12] is 1.3%; in [10] it was 22%; in [13] it was 58%; in [14], 63%; in assay [6], 2.5%; in [11] it was 56%. In addition, the values for the kinase still bound, per cent of control in [15] and in assay [8] were 31% and 82%, respectively.
On to `CCOc1cc(N2CCC(O)CC2)ccc1Nc1ncc2c(n1)N(C)c1ccccc1C(=O)N2C`, for which the kinase still bound, per cent of control in assay [1], in assay [2], in assay [3], in [9], in [4] and in assay [5] was 100% in each case. Further, the kinase still bound, per cent of control in assay [10], in assay [6], in assay [11], in [7] and in assay [8] was 100% throughout.
With `OCCCNc1cc(-c2ccnc(Nc3cccc(Cl)c3)n2)ccn1`, the kinase still bound, per cent of control in [1], in assay [2], in assay [3], in assay [9], in assay [4] and in assay [5] was 100% in each case. For the same compound, the kinase still bound, per cent of control in [10], in assay [6], in assay [11], in assay [7] and in assay [8] was 100% each time.
Take `CCC(=O)N1CCN(c2ccc(-n3c(=O)ccc4cnc5ccc(-c6cnc7ccccc7c6)cc5c43)cc2C(F)(F)F)CC1`: the kinase still bound, per cent of control in [1] was 51%; in assay [2] it was 18%; in [9] it was 100%; in [4], 80%; in assay [5] it was 69%; in assay [12], 100%. Also, the kinase still bound, per cent of control in assay [10] worked out at 100%; in [6] it was 84%; in assay [11], 48%; in [7] it was 68%.
For the compound `Cn1c(=O)n(-c2ccc(C(C)(C)C#N)cc2)c2c3cc(-c4cnc5ccccc5c4)ccc3ncc21`, the kinase still bound, per cent of control in assay [1] turned out to be 100%; in [2], 21%; in assay [3], 100%; in assay [4], 100%; in [5] it was 100%; in assay [10] it was 100%. Besides, the kinase still bound, per cent of control in assay [6], in assay [11], in assay [7] and in assay [8] was 100% in each case.
In the case of `CCc1nc(-c2cccc(C)c2)c(-c2ccnc(NC(=O)c3ccccc3)c2)s1`, the kinase still bound, per cent of control in [1] was determined as 72%; in assay [3], 26%; in assay [5] it was 94%; in [11], 51%; in assay [7], 3%.
`COc1cc(C(=O)NC2CCN(C)CC2)ccc1Nc1ncc2c(n1)N(C1CCCC1)C(C)CC(=O)N2C` (stereo not given): the kinase still bound, per cent of control in assay [1], in assay [2], in assay [3], in assay [4], in assay [5] and in assay [6] was 100% throughout. The kinase still bound, per cent of control in assay [7] and in [8] was 100% in each case.
In the case of `C=CC(=O)Nc1cccc(Oc2nc(Nc3ccc(N4CCN(C)CC4)cc3OC)ncc2Cl)c1`, the kinase still bound, per cent of control in assay [1] was 100%; in assay [2], 4%; in assay [3], 100%; in assay [4], 0%; in assay [5], 100%; in assay [6] it was 0.25%. The kinase still bound, per cent of control in [7] and in [8] was 100% throughout.
Consider `COc1ccc(N(C(=O)Oc2cc(C(=O)Nc3cccc(C(F)(F)F)c3)ccc2C)c2ccnc(Nc3ccc(N4CCN(C)CC4)cc3)n2)c(OC)c1`, for which the kinase still bound, per cent of control in assay [1] stood at 0.3%; in [2] it was 100%; in assay [3] it was 1.3%; in [4], 0.4%; in assay [6], 0.9%; in assay [7], 3.6%. The compound further returned a kinase still bound, per cent of control in assay [8] of 9%.

The record behind these values is the kinase profiling compilation of Christmann-Franck et al. (2016).
